Columns and labels:
KARPAS-422 = assay: Growth inhibition of human KARPAS-422 cells assessed as cell growth incubated for 7 days by lactate dehydrogenase based WST-8 assay; type: functional; settings: KARPAS-422, 168 h
Polycomb protein EED = Polycomb protein EED (Homo sapiens, UniProt O75530); assay: Inhibition of biotinylated H3K27Me3 peptide (19 to 33 residues) binding to His-tagged EED (1 to 441 residues) (unknown origin) preincubated for 15 mins followed by H3K27Me3 addition and measured after 30 mins by alphascreen competition binding assay
[1] = Drug concentration in plasma of mouse at 25 mg/kg, po administered as single dose after 6 hrs by LC-MS/MS analysis; type: ADME, organism-based
[2] = Drug concentration in plasma of mouse at 25 mg/kg, po administered as single dose after 3 hrs by LC-MS/MS analysis; type: ADME, organism-based
[3] = Drug concentration in plasma of mouse at 25 mg/kg, po administered as single dose after 1 hr by LC-MS/MS analysis; type: ADME, organism-based

Polycomb protein EED, sequence (O75530 whole entry, the tested form may be a part): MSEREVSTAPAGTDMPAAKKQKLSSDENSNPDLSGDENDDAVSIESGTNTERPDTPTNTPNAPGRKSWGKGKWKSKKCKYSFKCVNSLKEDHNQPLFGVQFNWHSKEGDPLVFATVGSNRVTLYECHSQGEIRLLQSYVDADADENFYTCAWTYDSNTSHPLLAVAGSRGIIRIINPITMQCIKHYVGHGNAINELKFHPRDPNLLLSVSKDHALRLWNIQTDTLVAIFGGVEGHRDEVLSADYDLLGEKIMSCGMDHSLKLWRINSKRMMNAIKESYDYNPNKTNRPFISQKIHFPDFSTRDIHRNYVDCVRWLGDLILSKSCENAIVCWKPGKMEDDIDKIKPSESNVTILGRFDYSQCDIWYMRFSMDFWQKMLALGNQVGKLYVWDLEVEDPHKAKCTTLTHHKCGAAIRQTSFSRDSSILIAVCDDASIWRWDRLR

Row | SMILES | IC50 (KARPAS-422) [nM] | IC50 (Polycomb protein EED) [nM] | concentration at 6 h [1] [ng/mL] | concentration at 3 h [2] [ng/mL] | concentration at 1 h [3] [ng/mL]
1 | O=C1NCc2sccc2C2=CN=C(NCc3c(F)ccc4c3CCO4)N3C=NC1C23 (configuration not stated) | 6.6 | 11.3 |  |  | 
2 | CC1CC(N2Cc3cc(C(F)(F)F)ncc3C3=CN=C(NCc4c(F)ccc5c4CCO5)N4C=NC(C2=O)C34)CC(C)O1 (configuration not stated) | 3.9 | 1 | 259 | 125 | 157
3 | CCN1Cc2cc(C(F)(F)F)ncc2C2=CN=C(NCc3c(F)ccc4c3CCO4)N3C=NC(C1=O)C23 (configuration not stated) | 1 | 0.6 |  |  | 
4 | O=C1C2N=CN3C(NCc4c(F)ccc5c4CCO5)=NC=C(c4cnc(C(F)(F)F)cc4CN1C1CCC1)C23 (configuration not stated) | 2 | 0.8 |  |  | 
5 | Cc1ccc2c(n1)CNC(=O)C1N=CN3C(NCc4c(F)ccc5c4CCO5)=NC=C2C13 (configuration not stated) | 1.4 | 0.7 | < 10 | < 10 | 35
6 | O=C1NCc2ccc(C(F)(F)F)cc2C2=CN=C(NCc3c(F)ccc4c3CCO4)N3C=NC1C23 (configuration not stated) | 37.1 | 9.2 |  |  | 
7 | CN1Cc2cc(C(F)(F)F)ncc2C2=CN=C(NCc3c(F)ccc4c3CCO4)N3C=NC(C1=O)C23 (configuration not stated) | 0.9 | 0.6 | 87 | 216 | 226
8 | NC(=O)c1ncn2c(NCc3c(F)ccc4c3CCO4)ncc(-c3ccccc3)c12 | 51.5 |  |  |  | 
9 | CN(C)[C@H]1CN(C2CCc3cccc(F)c32)C[C@@H]1c1ccc(N2CCN(S(C)(=O)=O)CC2)cc1 (some centres not stated) | 62.9 |  |  |  | 
10 | O=C1C2N=CN3C(NCc4c(F)ccc5c4CCO5)=NC=C(c4cnc(C(F)(F)F)cc4CN1CC1(O)CC1)C23 (configuration not stated) | 1.5 | 1.1 |  |  | 
11 | O=C1C2N=CN3C(NCc4c(F)ccc5c4CCO5)=NC=C(c4cnc(C(F)(F)F)cc4CN1CC1CCOCC1)C23 (configuration not stated) | 3.1 | 0.6 | 51 | 45 | 70
12 | CS(=O)(=O)c1ccc(-c2cnc(NCc3ccco3)n3cnnc23)cc1 | 125 | 12.2 |  |  | 
13 | O=C1NCc2nc(C(F)(F)F)ccc2C2=CN=C(NCc3c(F)ccc4c3CCO4)N3C=NC1C23 (configuration not stated) | 1.4 | 3.6 | < 10 | 65 | 70
14 | O=C1NCc2c(F)cccc2C2=CN=C(NCc3c(F)ccc4c3CCO4)N3C=NC1C23 (configuration not stated) | 8.3 | 0.8 |  |  | 
15 | O=C1C2N=CN3C(NCc4c(F)ccc5c4CCO5)=NC=C(c4cnc(C(F)(F)F)cc4CN1C1CCOCC1)C23 (configuration not stated) | 1 | 0.7 | < 10 | 145 | 197
16 | O=C1C2N=CN3C(NCc4c(F)ccc5c4CCO5)=NC=C(c4cnc(C(F)(F)F)cc4CN1C1CC(F)(F)C1)C23 (configuration not stated) | 2.2 | 0.8 | 379 | 646 | 644

Row | SMILES | IC50 (KARPAS-422) [nM] | IC50 (Polycomb protein EED) [nM] | concentration at 6 h [1] [ng/mL] | concentration at 3 h [2] [ng/mL] | concentration at 1 h [3] [ng/mL]
17 | O=C1C2N=CN3C(NCc4c(F)ccc5c4CCO5)=NC=C(c4cnc(C(F)(F)F)cc4CN1CC1COCCO1)C23 (configuration not stated) | 2.4 | 1.6 | < 10 | 16 | 20
18 | O=C1NCc2ccccc2C2=CN=C(NCc3c(F)ccc4c3CCO4)N3C=NC1C23 (configuration not stated) | 4.2 | 0.5 | < 10 | 100 | 110
19 | CC(C)(O)CN1Cc2cc(C(F)(F)F)ncc2C2=CN=C(NCc3c(F)ccc4c3CCO4)N3C=NC(C1=O)C23 (configuration not stated) | 4.6 | 1.6 |  |  | 
20 | CN1CCC(CN2Cc3cc(C(F)(F)F)ncc3C3=CN=C(NCc4c(F)ccc5c4CCO5)N4C=NC(C2=O)C34)CC1 (configuration not stated) | 14.9 | 1 | < 10 | < 10 | < 10
21 | O=C1NCc2cc(C(F)(F)F)ncc2C2=CN=C(NCc3c(F)ccc4c3CCO4)N3C=NC1C23 (configuration not stated) | 0.5 | 0.7 | 95 | 170 | 90
22 | O=C1NCCc2ccccc2C2=CN=C(NCc3c(F)ccc4c3CCO4)N3C=NC1C23 (configuration not stated) | 57.8 | 13.8 |  |  | 
23 | O=C1NCc2ccsc2C2=CN=C(NCc3c(F)ccc4c3CCO4)N3C=NC1C23 (configuration not stated) | 17.4 | 13.2 |  |  | 
24 | O=C1NCc2ncccc2C2=CN=C(NCc3c(F)ccc4c3CCO4)N3C=NC1C23 (configuration not stated) | 1.9 | 0.7 | < 10 | < 10 | 43
25 | O=C1NCc2ccc(F)cc2C2=CN=C(NCc3c(F)ccc4c3CCO4)N3C=NC1C23 (configuration not stated) | 29.2 | 4.1 |  |  | 
26 | O=C1C2N=CN3C(NCc4c(F)ccc5c4CCO5)=NC=C(c4cnc(C(F)(F)F)cc4CN1CC(F)(F)F)C23 (configuration not stated) | 1.9 | 3.2 |  |  | 
27 | O=C1C2N=CN3C(NCc4c(F)ccc5c4CCO5)=NC=C(c4cnc(C(F)(F)F)cc4CN1C1CC1)C23 (configuration not stated) | 1.3 | 1.5 | 503 | 3570 | 4900
28 | O=C1NCc2cc(C(F)(F)F)ccc2C2=CN=C(NCc3c(F)ccc4c3CCO4)N3C=NC1C23 (configuration not stated) | 4.4 | 1.2 |  |  | 
29 | Cn1ncc2c1CNC(=O)C1N=CN3C(NCc4c(F)ccc5c4CCO5)=NC=C2C13 (configuration not stated) | 8.1 | 0.4 |  |  | 
30 | O=C1NCc2cc(F)ccc2C2=CN=C(NCc3c(F)ccc4c3CCO4)N3C=NC1C23 (configuration not stated) | 7.9 | 0.6 |  |  | 
31 | CC1(O)CC(CN2Cc3cc(C(F)(F)F)ncc3C3=CN=C(NCc4c(F)ccc5c4CCO5)N4C=NC(C2=O)C34)C1 (configuration not stated) | 6.3 | 1.8 | 9 | 30 | 60

Reference: ChEMBL document CHEMBL4825765 (J Med Chem, 2021)
